In PubChem BioAssay AID180 (DTP/NCI, 2004) one finds T/C data, which are given here for eleven compounds.

In this assay the test system is BDF1 mice, Adenocarcinoma 755 s.c., tumor weight T/C. Nature of the assay: NCI In Vivo Anticancer Drug Screen. Data for tumor model Adenocarcinoma 755 (subcutaneous) in B6D2F1 (BDF1) mice. The following applies: endpoint: mean tumor weight, schedule: Q01DX011 (ip), higher = larger tumour. The method in brief:
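Values express treated (T) relative to vehicle-dosed control (C) animals, based on survival or tumour size measured after compound treatment of mice bearing a transplanted tumour.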

Setting [1] is: dose: 50.0 mg/kg/injection, vehicle: saline.
[2] abbreviates: dose: 10.0 mg/kg/injection, vehicle: carboxymethylcellulose (CMC).
[3] abbreviates: dose: 20.0 mg/kg/injection, vehicle: carboxymethylcellulose (CMC).
Where [4] appears, read: dose: 125.0 mg/kg/injection, vehicle: methylcellulose (MC).
Where [5] appears, read: dose: 31.0 mg/kg/injection, vehicle: methylcellulose (MC).
Where [6] appears, read: dose: 62.0 mg/kg/injection, vehicle: methylcellulose (MC).
The mark [7] stands for this setting: dose: 12.0 mg/kg/injection, vehicle: methylcellulose (MC).
Setting [8] is: dose: 25.0 mg/kg/injection, vehicle: methylcellulose (MC).
[9] abbreviates: dose: 50.0 mg/kg/injection, vehicle: methylcellulose (MC).
The mark [10] stands for this setting: dose: 100.0 mg/kg/injection, vehicle: methylcellulose (MC).

Several values for one entry are separate records, joined by “and”; a condition that tells them apart may be missing. Equal entries are not always repeated.

Consider `CCNc1ncnc2c1cnn2C1CCCO1` (stereo not given), for which the T/C – broadly, the result in the treated group divided by that in the control group, in per cent – reads like this: (dose: 3.1 mg/kg/injection, vehicle: methylcellulose (MC)) 61 % of control; (dose: 6.2 mg/kg/injection, vehicle: methylcellulose (MC)) 39 % of control; (dose: 12.5 mg/kg/injection, vehicle: methylcellulose (MC)) 3 % of control.
Turning to `COc1cc(-c2ccc(Nc3ccccc3C(=O)O)c(OC)c2)ccc1Nc1ccccc1C(=O)O`, the T/C by setting is: (dose: 25.0 mg/kg/injection, vehicle: saline) 75 % of control; under setting [1], 28 % of control; (dose: 100.0 mg/kg/injection, vehicle: saline) 5 % of control.
With `COC(=O)C1C(O)CCC2CN3CCc4c([nH]c5ccccc45)C3CC21` (stereo not given), the T/C (dose: 150.0 mg/kg/injection, vehicle: carboxymethylcellulose (CMC)) was 75 % of control.
Regarding `Nc1nc(=S)c2ncn(C3OC(CO)C(O)C3O)c2[nH]1` (stereo not given), the T/C is 43 % of control (dose: 0.03 mg/kg/injection, vehicle: carboxymethylcellulose (CMC)); 90 % of control (dose: 0.07 mg/kg/injection, vehicle: carboxymethylcellulose (CMC)); 81 % of control (dose: 0.13 mg/kg/injection, vehicle: carboxymethylcellulose (CMC)); 29 % of control and 37 % of control (dose: 0.5 mg/kg/injection, vehicle: carboxymethylcellulose (CMC)); 6 % of control and 7 % of control (dose: 1.0 mg/kg/injection, vehicle: carboxymethylcellulose (CMC)); 4 % of control (dose: 1.5 mg/kg/injection, vehicle: carboxymethylcellulose (CMC)). Also, the T/C reads like this: (dose: 1.5 mg/kg/injection, vehicle: methylcellulose (MC)) 2 % of control; (dose: 2.0 mg/kg/injection, vehicle: carboxymethylcellulose (CMC)) 4 % of control; (dose: 3.0 mg/kg/injection, vehicle: carboxymethylcellulose (CMC)) 3 % of control; (dose: 3.0 mg/kg/injection, vehicle: methylcellulose (MC)) 1 % of control.
For the compound `Cc1cc(=O)c2c(C)cccc2[nH]1`, the T/C reads like this: under setting [2], 112 % of control; (dose: 10.0 mg/kg/injection, vehicle: methylcellulose (MC)) 60 % of control; under setting [3], 105 % of control; (dose: 20.0 mg/kg/injection, vehicle: methylcellulose (MC)) 59 % of control; (dose: 40.0 mg/kg/injection, vehicle: carboxymethylcellulose (CMC)) 86 % of control; (dose: 40.0 mg/kg/injection, vehicle: methylcellulose (MC)) 72 % of control. Further, the T/C by setting is: (dose: 80.0 mg/kg/injection, vehicle: carboxymethylcellulose (CMC)) 58 % of control and 60 % of control and 75 % of control; (dose: 80.0 mg/kg/injection, vehicle: methylcellulose (MC)) 57 % of control; (dose: 160.0 mg/kg/injection, vehicle: carboxymethylcellulose (CMC)) 106 % of control; (dose: 320.0 mg/kg/injection, vehicle: carboxymethylcellulose (CMC)) 106 % of control.
Consider `COc1cccc2c1cc([N+](=O)[O-])c1c(C(=O)O)cc3c(c12)OCO3`, for which the T/C was 59 % of control (dose: 50.0 mg/kg/injection, vehicle: other) and 43 % of control (dose: 100.0 mg/kg/injection, vehicle: other).
On to `Cc1ccc(CSc2nc(N)nc3nc[nH]c23)cc1C`, for which the T/C is 37 % of control (dose: 31.25 mg/kg/injection, vehicle: methylcellulose (MC)); 33 % of control (dose: 62.5 mg/kg/injection, vehicle: methylcellulose (MC)); 15 % of control under setting [4]; 1 % of control and 7 % of control (dose: 250.0 mg/kg/injection, vehicle: methylcellulose (MC)); 5 % of control (dose: 350.0 mg/kg/injection, vehicle: methylcellulose (MC)).
For `C[C@@H]1CN(C(=O)CCOS(C)(=O)=O)[C@@H](C)CN1C(=O)CCOS(C)(=O)=O`, the T/C is 95 % of control (dose: 4.0 mg/kg/injection, vehicle: saline); 65 % of control (dose: 8.0 mg/kg/injection, vehicle: saline); 104 % of control (dose: 9.4 mg/kg/injection, vehicle: carboxymethylcellulose (CMC)); 61 % of control (dose: 15.0 mg/kg/injection, vehicle: carboxymethylcellulose (CMC)); 60 % of control (dose: 16.0 mg/kg/injection, vehicle: saline); 32 % of control (dose: 30.0 mg/kg/injection, vehicle: carboxymethylcellulose (CMC)). For the same compound, the T/C reads like this: (dose: 33.0 mg/kg/injection, vehicle: carboxymethylcellulose (CMC)) 21 % of control; (dose: 33.0 mg/kg/injection, vehicle: saline) 52 % of control; (dose: 37.5 mg/kg/injection, vehicle: carboxymethylcellulose (CMC)) 59 % of control and 62 % of control; (dose: 50.0 mg/kg/injection, vehicle: carboxymethylcellulose (CMC)) 27 % of control; under setting [1], 15 % of control; (dose: 60.0 mg/kg/injection, vehicle: carboxymethylcellulose (CMC)) 5 % of control. Also, the T/C (dose: 75.0 mg/kg/injection, vehicle: carboxymethylcellulose (CMC)) is 9 % of control and 15 % of control and 23 % of control; the T/C (dose: 112.5 mg/kg/injection, vehicle: carboxymethylcellulose (CMC)) was 10 % of control; the T/C (dose: 120.0 mg/kg/injection, vehicle: carboxymethylcellulose (CMC)) is 4 % of control.
As for `CCCN1CCC(=O)NC1=S`, the T/C was 81 % of control (dose: 15.0 mg/kg/injection, vehicle: methylcellulose (MC)); 64 % of control under setting [5]; 74 % of control under setting [6]; 93 % of control under setting [4].
Take `O=C(O)CC(Nc1ncnc2nc[nH]c12)C(=O)O` (stereo not given): the T/C reads like this: under setting [7], 105 % of control; under setting [8], 98 % of control; under setting [9], 103 % of control; under setting [10], 45 % of control.
As for `CN(C)/N=N/c1nc[nH]c1C(N)=O`, the T/C is 79 % of control (dose: 5.0 mg/kg/injection, vehicle: carboxymethylcellulose (CMC)); 59 % of control under setting [2]; 50 % of control under setting [7]; 54 % of control (dose: 16.0 mg/kg/injection, vehicle: methylcellulose (MC)); 53 % of control and 57 % of control under setting [3]; 64 % of control (dose: 20.0 mg/kg/injection, vehicle: saline). For the same compound, the T/C was 37 % of control under setting [8]; 52 % of control (dose: 31.0 mg/kg/injection, vehicle: carboxymethylcellulose (CMC)); 62 % of control under setting [5]; 63 % of control (dose: 40.0 mg/kg/injection, vehicle: saline); 30 % of control under setting [9]; 47 % of control (dose: 62.0 mg/kg/injection, vehicle: carboxymethylcellulose (CMC)). The T/C runs as follows: under setting [6], 94 % of control; (dose: 62.5 mg/kg/injection, vehicle: carboxymethylcellulose (CMC)) 55 % of control; (dose: 80.0 mg/kg/injection, vehicle: saline) 30 % of control; under setting [10], 22 % of control; (dose: 160.0 mg/kg/injection, vehicle: saline) 17 % of control; (dose: 600.0 mg/kg/injection, vehicle: saline) 3 % of control.
